{
  "source": "patent US11021481B2",
  "about": "“Substituted isoindolin-1-ones and 2,3-dihydro-1h-pyrrolo[3,4-c]pyridin-1-ones as HPK1 antagonists” (Nimbus Saturn, Inc., priority 2019, dated 2021)",
  "note": "pIC50: −log10 of the molar value.",
  "data": [
    {"target": "HPK1 (Homo sapiens (Human), UniProt Q92918)", "sequence (Q92918 whole entry)": "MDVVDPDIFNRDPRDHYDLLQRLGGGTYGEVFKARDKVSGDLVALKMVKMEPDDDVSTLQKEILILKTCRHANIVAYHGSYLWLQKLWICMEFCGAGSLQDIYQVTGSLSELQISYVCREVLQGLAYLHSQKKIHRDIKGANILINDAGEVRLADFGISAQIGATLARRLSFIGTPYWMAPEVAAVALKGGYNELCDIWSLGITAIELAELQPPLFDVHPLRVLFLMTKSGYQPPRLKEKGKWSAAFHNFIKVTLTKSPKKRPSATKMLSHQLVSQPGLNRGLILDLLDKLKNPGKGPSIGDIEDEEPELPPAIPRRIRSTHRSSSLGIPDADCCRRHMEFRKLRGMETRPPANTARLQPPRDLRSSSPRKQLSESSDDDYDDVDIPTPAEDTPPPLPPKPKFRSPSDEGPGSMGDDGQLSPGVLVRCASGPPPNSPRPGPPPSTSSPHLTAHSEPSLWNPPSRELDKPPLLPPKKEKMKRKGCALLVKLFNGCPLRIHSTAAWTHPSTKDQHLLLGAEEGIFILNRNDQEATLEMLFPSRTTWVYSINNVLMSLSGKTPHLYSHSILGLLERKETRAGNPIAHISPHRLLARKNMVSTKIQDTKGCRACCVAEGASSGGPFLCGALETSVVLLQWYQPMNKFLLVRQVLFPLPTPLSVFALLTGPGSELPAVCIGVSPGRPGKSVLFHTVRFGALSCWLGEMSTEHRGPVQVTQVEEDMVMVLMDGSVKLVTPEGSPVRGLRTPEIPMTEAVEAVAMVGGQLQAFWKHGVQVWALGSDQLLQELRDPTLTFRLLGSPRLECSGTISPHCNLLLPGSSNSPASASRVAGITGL", "experiment": "HPK1 biochemical enzyme assay (microfluidic mobility shift assay)", "details": "1.5 nM HPK1, ATP 1 mM final, 30 min preincubation, 60 min at RT, Caliper EZ Reader; read-out: HPK1 1000UMATP caliper IC50", "method_in_brief": "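Mobility shift readout of HPK1 activity after a 60 min RT reaction with 1 mM ATP, 1 μM substrate and 5 mM MgCl2. Enzyme/substrate mix was first exposed to compounds for 30 min, using ten-point curves topping at 3 μM final.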", "values": [
      {"smiles": "Cn1ccc2c(-c3ncc(Nc4ccnc(N5CC[C@H]6CNC[C@H]65)n4)c4c3CNC4=O)ccnc21", "note": "[I-684, 7-((2-((3aS, 6aS)-hexahydro-pyrrolo[3,4-b]pyrrol-1(2H)-yl)pyrimidin-4-yl)amino)-4-(1-methyl-1H-pyrrolo[2,3-b)pyridin-4-yl)-2,3-dihydro-1H-pyrrolo[3,4-c]pyridin-1-one]", "pIC50": "> 7.00"},
      {"smiles": "CN1CCN(c2ccc(Nc3ccc(-c4c[nH]c5cc(F)ccc45)c4c3C(=O)NC4)nc2)CC1", "note": "[I-32, 4-(6-fluoro-1H-indol-3-yl)-7-[[5-(4-methylpiperazin-1-yl)-2-pyridyl]amino] isoindolin-1-one]", "pIC50": "> 7.00"},
      {"smiles": "CO[C@H]1CCN(Cc2nc(Nc3ccc(-c4cnc5cc(F)ccn45)c4c3C(=O)NC4)ccc2[C@@H]2CCOC2)C1", "note": "[I-790, 4-(7-fluoroimidazo [1,2-a]pyridin-3-yl)-7-((6-(((S)-3-methoxypyrrol-idin-1-yl)methyl)-5-((S)-tetrahydiofuran-3-yl)pyridin-2-yl)amino)isoin-dolin-1-one]", "pIC50": "> 7.00"},
      {"smiles": "Cc1ccn2c(-c3ccc(Nc4ccc(CN5CCOCC5)cn4)c4c3CNC4=O)cnc2c1F", "note": "[I-468, 4-(8-fluoro-7-methyl-imidazo[1,2-a]pyridin-3-yl)-7-[[5-(morpholino-methyl)-2-pyridyl]amino] isoindolin-1-one]", "pIC50": "> 7.00"},
      {"smiles": "Cc1cccc2c(-c3ccc(Nc4ccc(N5CCNCC5)cn4)c4c3CNC4=O)cnn12", "note": "[I-84, 4-(7-methylpyrazolo [1,5-a]pyridin-3-yl)-7-[(5-piperazin-1-yl-2-pyridyl)amino] isoindolin-1-one]", "pIC50": "> 7.00"},
      {"smiles": "Cn1ccc2c(-c3ccc(Nc4ccc(N5CCC[C@H](C(C)(C)O)C5)cn4)c4c3CNC4=O)ccnc21", "note": "(single isomer, unassigned) [I-280]", "pIC50": "> 7.00"},
      {"smiles": "O=C1NCc2c(-c3cnc4cc(C(F)F)ccn34)ccc(Nc3ccc(C4(O)CCOCC4)cn3)c21", "note": "[I-608, 4-(7-(difluoromethyl)-imidazo[1,2-a]pyridin-3-yl)-7-((5-(4-hydroxytetra-hydro-2H-pyran-4-yl)pyridin-2-yl)amino)isoin-dolin-1-one]", "pIC50": "> 7.00"},
      {"smiles": "CN1CCN(c2ccc(Nc3cnc(-c4cn(C)c5ncccc45)c4c3C(=O)NC4)nc2)CC1", "note": "[I-14, 7-[[5-(4-methylpiperazin-1-yl)-2-pyridyl]amino]-4-(1-methylpyrrolo [2,3-b]pyridin-3-yl)-2,3-dihydropyrrolo [3,4-c]pyridin-1-one]", "pIC50": "< 6.00"},
      {"smiles": "Cn1cnc2c(-c3ccc(Nc4ccc(N5CCC(O)CC5)cn4)c4c3CNC4=O)cccc21", "note": "[I-173, 7-[[5-(4-hydroxy-1-piperidyl)-2-pyridyl]amino]-4-(1-methylbenz-imidazol-4-yl)isoindolin-1-one]", "pIC50": "> 7.00"},
      {"smiles": "C[C@@H]1NC(=O)c2c(Nc3ccc(N4CCC(O)CC4)cn3)ccc(-c3cnc4ccccn34)c21", "note": "[I-316, (S)-7-((5-(4-hydroxypip-eridin-1-yl)pyridin-2-yl)amino)-4-(imidazo[1,2-a]pyridin-3-yl)-3-methylisoindo-lin-1-one]", "pIC50": "< 6.00"},
      {"smiles": "O=C1NCc2c(-c3cnc4cccnn34)ncc(Nc3ccc(N4CCC(O)CC4)cn3)c21", "note": "[I-199, 7-[[5-(4-hydroxy-1-piperidyl)-2-pyripyl]amino]-4-imidazo[1,2-b]pyridazin-3-yl-2,3-dihydropyrrolo [3,4-c]pyridin-1-one]", "pIC50": "6.00 to 7.00"},
      {"smiles": "Cn1ccc2c(-c3ncc(Nc4ccc(N5CCC[C@@H](C(C)(C)O)C5)cn4)c4c3CNC4=O)cccc21", "note": "[I-223, 7-[[5-[(3R)-3-(1-hydroxy-1-methyl-ethyl)-1-piperipyl]-2-pyridyl]-amino]-4-(1-methylindol-4-yl)-2,3-dihydropyrrolo [3,4-c]pyridin-1-one]", "pIC50": "> 7.00"},
      {"smiles": "COc1ccn2c(-c3ccc(Nc4ccc(N5CCC(O)CC5)cn4)c4c3CNC4=O)cnc2c1", "note": "[I-164, 7-[[5-(4-hydroxy-1-piperidyl)-2-pyridyl]amino]-4-(7-methoxylmidazo[1,2-a]pyridin-3-yl)isoindolin-1-one]", "pIC50": "> 7.00"},
      {"smiles": "O=C1NCc2c(-c3cnc4cc(F)ccn34)ccc(Nc3cc(C4CCOCC4)[nH]n3)c21", "note": "[I-381, 4-(7-fluoroimidazo [1,2-a]pyridin-3-yl)-7-((5-(tetrahydro-2H-pyran-4-yl)-1H-pyrazol-3-yl)amino)isoin-dolin-1-one]", "pIC50": "> 7.00"},
      {"smiles": "CN1C[C@H](c2ccc(Nc3ccc(-c4cnc5cnccn45)c4c3C(=O)NC4)nc2)CC1=O", "note": "[I-331, (S)-4-(imidazo[1,2-a]pyrazin-3-yl)-7-((5-(1-methyl-5-oxopyrrolidin-3-yl)pyridin-2-yl)amino)isoin-dolin-1-one]", "pIC50": "> 7.00"},
      {"smiles": "CN[C@@H]1CCCN(c2cccc(Nc3cnc(-c4ccnc5c4ccn5C)c4c3C(=O)NC4)n2)C1", "note": "[I-239, 7-[[6-[(3R)-3-(methylamino)-1-piperidyl]-2-pyridyl]-amino]-4-(1-methylpyrrolo [2,3-b]pyridin-4-yl)-2,3-dihydropyrrolo [3,4-c]pyridin-1-one]", "pIC50": "6.00 to 7.00"},
      {"smiles": "Cn1ccc2c(-c3ncc(Nc4cccc(N5CCC6CNCC65)n4)c4c3CNC4=O)ccnc21", "note": "(stereo not drawn) [I-472, 7-[[6-(3,3a,4,5,6,6a-hexahydro-2H-pyrrolo[2,3-c]pyrrol-1-yl)-2-pyridyl]amino]-4-(1-methylpyrrolo [2,3-b]pyridin-4-yl)-2,3-dihydropyrrolo [3,4-c]pyridin-l-one]", "pIC50": "> 7.00"},
      {"smiles": "CO[C@@H]1CCN(Cc2nc(Nc3ccc(-c4cnc5cc(F)ccn45)c4c3C(=O)NC4)ccc2[C@H]2CCOC2)C1", "note": "[I-780, 4-(7-fluoroimidazo [1,2-a]pyridin-3-yl)-7((6-(((R)-3-methoxypyrrol-idin-1-yl)methyl)-5-((R)-tetraliydrofiiran-3-yl)pyridin-2-yl)amino)isoin-dolin-1-one]", "pIC50": "> 7.00"},
      {"smiles": "O=C1NCc2c(-c3cnc4cc(F)ccn34)ccc(Nc3ccc(N4CCC[C@@]5(CNCCO5)C4)cn3)c21", "note": "[I-507, (R)-7-((5-(1-oxa-4,8-diazaspiro[5.5]undecan-8-yl)pyridin-2-yl)amino)-4-(7-fluoroimidazo [1,2-a]pyridin-3-yl)isoindolin-1-one]", "pIC50": "> 7.00"},
      {"smiles": "Cc1ccn2c(-c3ccc(Nc4ccc(N5CCO[C@@H](CO)C5)cn4)c4c3CNC4=O)cnc2c1F", "note": "[I-460, 4-(8-fluoro-7-methyl-imidazo[1,2-a]pyridin-3-yl)-7-[[5-[(2R)-2-(hydroxymeth-yl)morpholin-4-yl]-2-pyridyl]amino] isoindolin-1-one]", "pIC50": "> 7.00"},
      {"smiles": "O=C1NCc2c(-c3cnc4ccccn34)ccc(Nc3ccc(N4CCNCC4)cn3)c21", "note": "[I-60, 4-imidazo[1,2-a]pyridin-3-yl-7-[(5-piperazin-1-yl-2-pyridyl)amino] isoindolin-1-one]", "pIC50": "> 7.00"},
      {"smiles": "COCC1(O)CCN(c2ccc(Nc3ccc(-c4cnc5cc(F)ccn45)c4c3C(=O)NC4)nc2CN(C)C)CC1", "note": "[I-782, 7-((6-((dimethylamino)-methyl)-5-(4-hydroxy-4-(methoxymeth-yl)piperidin-1-yl)pyridin-2-yl)amino)-4-(7-fluoroimidazo [1,2-a]pyridin-3-yl)isoindolin-1-one]", "pIC50": "> 7.00"},
      {"smiles": "O=C1NCc2c(-c3cnc4c(F)cccn34)ncc(Nc3ccc(N4CC[C@H](F)[C@H](O)C4)cn3)c21", "note": "[I-658, 7-((5-((3R,4S]-4-fluoro-3-hydroxy-piperidin-1-yl)pyridin-2-yl)amino)-4-(8-fluoroimidazo [1,2-a]pyridin-3-yl)-2,3-dihydro-1H-pyrrolo[3,4-c]pyridin-1-one]", "pIC50": "> 7.00"},
      {"smiles": "CN(C)Cc1nc(Nc2ccc(-c3cnc4cc(F)ccn34)c3c2C(=O)NC3)ccc1C1(C)CCOC1", "note": "(stereo not shown) [I-843, 7-((6-((dimethylamino)-methyl)-5-(3-methylTHF-3-yl)pyridin-2-yl)amino)-4-(7-fluoroimidazo [1,2-a]pyridin-3-yl)isoindolin-1-one]", "pIC50": "> 7.00"},
      {"smiles": "CN(C)Cc1nc(Nc2cnc(-c3ccnc4c3ccn4C)c3c2C(=O)NC3)ccc1N1CCOCC1", "note": "[I-768, 7-((6-((dimethylamino)-methyl)-5-morpholinopy-ridin-2-yl)amino)-4-(1-methyl-1H-pyrrolo[2,3-b]pyridin-4-yl)-2,3-dihydro-1H-pyrrolo[3,4-c]pyridin-1-one]", "pIC50": "> 7.00"},
      {"smiles": "Cc1ccn2c(-c3ccc(Nc4ccc(N5CCNCC5)cn4)c4c3CNC4=O)cnc2c1", "note": "[I-72, 4-(7-methylimidazo [1,2-a]pyridin-3-yl)-7-[(5-piperazin-1-yl-2-pyridyl)amino] isoindolin-1-one]", "pIC50": "> 7.00"},
      {"smiles": "O=C1NCc2c(-c3cnc4cc(F)ccn34)ccc(Nc3ccc(N4CC[C@H](O)[C@@H](F)C4)cn3)c21", "note": "[I-400, 7-((5-((3S, 4S)-3-fluoro-4-hydroxy-piperidin-1-yl)pyridin-2-yl)amino)-4-(7-fluoroimidazo [1,2-a]pyridin-3-yl)isoindolin-1-one]", "pIC50": "> 7.00"},
      {"smiles": "Cc1nccn2c(-c3ccc(Nc4ccc(N5CCC(O)CC5)cn4)c4c3CNC4=O)cnc12", "note": "[I-158, 7-[[5-(4-hydroxy-1-piperidyl)-2-pyridyl]amino]-4-(8-methylimidazo [1,2-a]pyrazin-3-yl)isoindolin-1-one]", "pIC50": "> 7.00"},
      {"smiles": "CN(C)Cc1nc(Nc2ccc(-c3cnc4cc(F)ccn34)c3c2C(=O)NC3)ccc1S(C)(=O)=O", "note": "[I-796, 7-((6-((dimethylamino)-methyl)-5-(methylsulfon-yl)pyridin-2-yl)amino)-4-(7-fluoroimidazo [1,2-a]pyridin-3-yl)isoindolin-1-one]", "pIC50": "> 7.00"},
      {"smiles": "Cc1ccc2c(-c3ccc(Nc4ccc(N5CCN(C)CC5)cn4)c4c3CNC4=O)c[nH]c2c1", "note": "[I-23, 4-(6-methyl-1H-indol-3-yl)-7-[[5-(4-methylpiperazin-1-yl)-2-pyridyl]amino]isoindolin-1-one]", "pIC50": "6.00 to 7.00"},
      {"smiles": "Cc1cccc2c(-c3ccc(Nc4ccc([C@@H]5CCOC5)c(CN(C)C)n4)c4c3CNC4=O)cnn12", "note": "[I-709, (S)-7-((6-((dimethylamino)-methyl)-5-(tetrahydrofuran-3-yl)pyridin-2-yl)amino)-4-(7-methylpyrazolo[1,5-a]pyridin-3-yl)isoindolin-1-one]", "pIC50": "> 7.00"}
    ]}
  ]
}
